Experimental data from patent publication US5882851A, “Cytochrome P-450 monooxygenases” (Novartis Finance Corporation, priority 1993, dated 1999).

Columns and labels:
[1] = molecular target: T1, cytochrome P-450TYR (Sorghum bicolor, UniProt Q43135); experiment: Substrate binding spectra of isolated sorghum cytochrome P-450TYR (difference spectrum A390-420)
T1 construct: from tissue; host or cells: microsomes of etiolated Sorghum bicolor seedlings, solubilised and purified by dye columns
T1 sequence (Q43135 1-558): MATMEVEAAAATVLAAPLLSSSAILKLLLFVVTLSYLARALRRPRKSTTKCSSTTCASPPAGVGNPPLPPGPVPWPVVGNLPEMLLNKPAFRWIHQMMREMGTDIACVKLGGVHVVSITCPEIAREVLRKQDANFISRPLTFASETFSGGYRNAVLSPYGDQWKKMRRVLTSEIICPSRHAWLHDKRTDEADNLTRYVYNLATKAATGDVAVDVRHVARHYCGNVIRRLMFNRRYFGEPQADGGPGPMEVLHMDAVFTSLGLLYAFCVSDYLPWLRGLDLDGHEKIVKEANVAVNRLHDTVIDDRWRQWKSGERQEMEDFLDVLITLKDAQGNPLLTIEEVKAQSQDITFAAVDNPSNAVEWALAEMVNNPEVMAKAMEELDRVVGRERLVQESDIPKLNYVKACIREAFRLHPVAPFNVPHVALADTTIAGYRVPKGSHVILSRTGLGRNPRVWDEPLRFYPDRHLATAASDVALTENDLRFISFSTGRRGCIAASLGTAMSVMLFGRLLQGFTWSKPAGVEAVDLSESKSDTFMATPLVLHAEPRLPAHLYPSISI
Protocol: Cytochrome P-450 substrate binding spectra are recorded with stepwise increased substrate concentration until saturating conditions are reached.
Cytochrome P-450TYR in the oxidized state has a strong absorption peak at 420 nm, representing the low spin state of the iron of the heme group. The binding of a ligand to the heme group shifts the absorption maximum by changing the spin state of the iron. […] The following experimental procedure is used to obtain the substrate binding spectrum: two identical cuvettes containing a buffered solution of the isolated cytochrome P-450 are prepared. The substrate of the enzyme is added to the sample cuvette whereas the same volume of buffer is added to the other cuvette. The difference spectrum is then recorded in an SLM-Aminco DW2c spectrophotometer. The absorption difference, A390-420, is proportional to the concentration of cytochrome P-450TYR with a bound substrate at its active site. If a saturating concentration of substrate is added to the sample cuvette, the absorption difference is proportional to the concentration of the substrate specific cytochrome P-450 in the cuvettes. The saturating concentration of the substrate is determined by titrating the cytochrome P-450 sample with increasing amounts of substrate and monitoring A390-420.
If a cytochrome P-450 sample can be saturated with two different substrates, there may be two different cytochrome P-450 enzymes in the sample, or there may be one cytochrome P-450 enzyme able to bind to both substrates. To discriminate between these possibilities, saturating amounts of the two substrates are added sequentially and the A390-420absorption change is monitored. If, independent of the order of addition, the addition of the second sample gives rise to an increased A390-420value compared to the value after the addition of the first substrate, the two substrates are bound by different enzymes. If A390-420 remains unchanged upon addition of the second substrate, independent of the order of addition, both substrates bind to the same active site, i.e. to the same cytochrome P-450 enzyme.

[2] = molecular target: T2, cytochrome P-450TYR (Sorghum bicolor, UniProt Q43135); experiment: Reconstitution of cytochrome P-450TYR activity in DLPC micelles; format: biochemical
T2 construct: from tissue; host or cells: microsomes of etiolated Sorghum bicolor seedlings, solubilised and purified by dye columns
Text: Reconstitution of the enzyme activity of a microsomal P-450 enzyme is accomplished by insertion of the cytochrome P-450 enzyme and the corresponding NADPH-cytochrome P-450 oxidoreductase into appropriate lipid micelles made from different commercially available lipids. Isolation of NADPH-cytochrome P-450 oxidoreductase is done according to Halkier and Moller, Plant Physiol. 96:10-17, 1990. A mixture of lipids can be used but with cytochrome P-450TYR di-lauroyl-phosphatidyl choline (DLPC) provides the best enzymatic activity. One rate limiting factor of this rate limiting reaction is the number of correctly formed complexes of cytochrome P-450TYR and NADPH-cytochrome P-450 oxidoreductase. Excess amounts of the oxidoreductase and concentrated enzyme solutions ensure a sufficient number of active complexes.
A reconstituted enzyme is obtained using the following components:
Cytochrome P-450TYR : 100 μg/ml in 50 mM potassium phosphate buffer pH 7,9
Oxidoreductase, purified from Sorghum bicolor: 100 μg/ml in 50 mM potassium phosphate buffer pH 7,9
Lipid: 10 mg/ml di-lauroyl-phosphatidyl choline, sonicated in 50 mM potassium phosphate buffer pH 7,9
^14 C-tyrosine: commercially available from Amersham; [U-^14 C]-L-tyrosine 0.5 μCi
10 μl of the lipid suspension is mixed in a glass vial with 50 μl of the cytochrome P-450TYR (0-1.5 pmol) solution. 50 μl of the oxidoreductase (0-0.15 U) solution is added and then 10 μl tyrosine solution and 10 μl NADPH solution are added and the mixture is sonicated in a Branson 5200 sonication bath for one minute. The reaction mixture is subsequently incubated for 1 hour at 30° C. At the end of the incubation period the reaction is stopped by transferring the glass vials onto ice. Radioactively labelled intermediates formed are extracted into 50 μl ehtyl acetate, applied to a silica coated TLC plate and developed using an ethyl acetate/toluene (1:5 v/v) mixture as mobile phase. The resultant product, p-hydroxyphenylacetaldehyde oxime is visualized by autoradiography of the TLC plate. Alternatively, the intermediates are analyzed by reverse-phase HPLC coupled to a Berthold radioactiviy monitor. The HPLC separation was carried out using a nucleosil 100-10C18 column isocratically eluted with 1,5% 2-propanol in 25 mM Hepes pH 7,9 (Halkier et al, J. Biol. Chem. 264:19487-19494, 1989). Control samples may be made by omitting either cytochrome P-450 oxidoreductase or NADPH.

N[C@@H](Cc1ccc(O)cc1)C(=O)O [tyrosine, L-tyrosine]
initial A390-420 ([1]; 30 μl 5 mM tyrosine added to 500 μl P-450TYR): 0,0437 | resulting A390-420 ([1]; 30 μl 5 mM tyrosine, dilution factor 530/500): 0,0463 | initial A390-420 ([1]; 60 μl 5 mM tyrosine): 0,0496 | resulting A390-420 ([1]; 60 μl 5 mM tyrosine, dilution factor 560/500): 0,0556 | initial A390-420 ([1]; 90 μl 5 mM tyrosine): 0,0486 | resulting A390-420 ([1]; 90 μl 5 mM tyrosine, dilution factor 590/500): 0,0573 | type of substrate binding spectrum ([1]; isolated sorghum P-450TYR): type I binding spectrum | turn-over number ([2]; in the absence of added salt): 228 min⁻¹ | turn-over number ([2]; in the presence of 15 mM NaCl): 198 min⁻¹
